Here are results for 4 molecules from paper PMC7460063, “Unique Polyhalogenated Peptides from the Marine Sponge Ircinia sp” (Marine Drugs, 2020).

Non-standard residues stand in square brackets, D forms with d. Residues, ends and D or L forms follow the SMILES beside them. *: point of attachment. X1 = Cn1c(Br)c(Br)c(Br)c1C(=O)*; NMeL = CN[C@@H](CC(C)C)C(=O)O

As usually defined, the GI50 is the concentration at which growth is held to half of that of the control. Low readings indicate greater sensitivity of the cells, high ones lower sensitivity of the cells. In general, %Inhibition refers to the relative decrease from the control value, in per cent.

Series [1] has as its system four cancer cell lines. As to conditions: cited for comparison with 1 and 2; cited from earlier work. On the procedure:
In summary, two new peptides bearing unprecedented halogenated moieties, haloirciniamide A (1) and seribunamide A (2), were isolated from a marine sponge belonging to the Irnicia genus, which was selected for further studies. The sample was collected around the Thousand Islands (Indonesia) by the Pharmamar expedition team in collaboration with the Research Center for Oceanography, Indonesian Institute of Sciences (RCO-LIPI). The planar structures of the novel compounds were determined by a combination of extensive NMR and HPLC-MS experiments. The absolute configuration was achieved by Marfey’s ...

Another series has as its system PSN-1. The experiment in a line: Cytotoxic activity against pancreas tumor cell line PSN-1. In kind it is cell-based. To be noted: PSN-1 (pancreas), human tumor cell line.
The test system of series [2] is four cancer cell lines. The experiment in a line: Cytotoxic activity, four cancer cell lines (summary). To be noted: four cancer cell lines: A-549, HT-29, MDA-MB-231, PSN-1. Format: cell-based, human.
Series [3] deals with interaction between the programmed cell death protein PD-1 and its natural ligand PDL1. The experiment in a line: Cell-based assay of PD-1/PDL1 interaction. As to conditions: for %Inhibition at 1 × 10^−5 M (PD-1): final readout dependent on the interaction between PD-1 and PDL1; for impairment of PD-1/PDL1 interaction: final readout dependent on the interaction between the two proteins.

A further series has as its system MDA-MB-231. The experiment in a line: Cytotoxic activity against breast tumor cell line MDA-MB-231. Format: cell-based. As to conditions: MDA-MB-231 (breast), human tumor cell line.
Another series relates to HT-29. Description: Cytotoxic activity against colon tumor cell line HT-29. Format: cell-based. As to conditions: HT-29 (colon), human tumor cell line.
In a further series the test system is A-549. Description: Cytotoxic activity against lung tumor cell line A-549. In kind it is cell-based. To be noted: A-549 (lung), human tumor cell line.
A further series has as its system topoisomerase I. Description: Topoisomerase I inhibition. In kind it is biochemical.

Consider gunungamide A, for which the “cytotoxic activity (words, comparison compound gunungamide A)” value with four cancer cell lines [1] is given as “not observed”.
Turning to `CC[C@H](C)[C@H](NC(=O)c1c(Br)c(Br)c(Br)n1C)C(=O)N(C)[C@@H](CC(C)C)C(=O)N1CCC[C@H]1C(=O)N[C@@H](CCC(N)=O)C(=O)O` [Compound 2, seribunamide A] (X1-I[NMeL]PQ-OH), the concentration for 50% growth inhibition (GI50) in the series on PSN-1, with MDA-MB-231, with HT-29 and in the series on A-549 was above 12 µM throughout. Further, in the series with four cancer cell lines [2], the “cytotoxic activity” value was “not observed”. In addition, in series [3], the “%Inhibition at 1 × 10^−5 M (PD-1)” value is −3.5%. Besides, in series [3], the “impairment of PD-1/PDL1 interaction” value was “unable to impair the interaction”.
cyclocinamide B: the “cytotoxic activity (words, comparison compound cyclocinamide B)” value in the series with four cancer cell lines [1] is on record as “not observed”.
Turning to `CN1C(=O)C[C@H](C(N)=O)NC(=O)[C@@H](O)CNC(=O)[C@H](CNC(=O)c2cc(Br)c(Br)[nH]2)NC(=O)[C@H](CN)NC(=O)C1Cc1cnc(Cl)[nH]1` (stereo partly drawn) [Compound 1, haloirciniamide A], the GI50 with PSN-1, in the series with MDA-MB-231, with HT-29 and with A-549 was above 12 µM each time. In addition, in the series with four cancer cell lines [2], the “cytotoxic activity” value was “not observed”. Besides, the “%Inhibition at 1 × 10^−5 M (PD-1)” value in series [3] turned out to be 0.3%. The “impairment of PD-1/PDL1 interaction” value in series [3] is given as “unable to impair the interaction”. For the same molecule, in the series on topoisomerase I (1 × 10^−5 M), the “%Inhibition at 1 × 10^−5 M (Top-I)” value stood at 3%. In addition, the “inhibition of topoisomerase I” value with topoisomerase I (1.0 × 10^−5 M) is reported as “no inhibition of the enzyme”.
